In patent US6897217B2, “2-Alkynyl-and 2-alkenyl-pyrazolo-[4,3-e]-1,2,4-triazolo-[1,5-c]-pyrimidine adenosine A2a receptor antagonists” (Schering Corporation, priority 2003, dated 2005):

Biological target: T1, Human A2a Adenosine Receptor (Homo sapiens, UniProt P29274)
T1 construct: purchased Receptor Biology, Inc., Beltsville, Md; RB-HA2a
Experiment: Human adenosine A2a receptor competition binding assay
Conditions: [3H]-SCH 58261 displacement, human A2a membranes
Experimental: Human Adenosine A2a and A1 Receptor Competition Binding Assay Protocol
• A2a: Human A2a Adenosine Receptor membranes, Catalog #RB-HA2a, Receptor Biology, Inc., Beltsville, Md. Dilute to 17 μg/100 μl in membrane dilution buffer (see below). Assay Buffers • Membrane dilution buffer: Dulbecco's Phosphate Buffered Saline (Gibco/BRL)+10 mM MgCl2. • Compound Dilution Buffer: Dulbecco's Phosphate Buffered Saline (Gibco/BRL)+10 mM MgCl2 supplemented with 1.6 mg/ml methyl cellulose and 16% DMSO. Prepared fresh daily. Ligands • A2a: [3H]-SCH 58261, custom synthesis, AmershamPharmacia Biotech, Piscataway, N.J. Stock is prepared at 1 nM in membrane dilution buffer. Final assay concentration is 0.5 nM. • A1: [3H]-DPCPX, AmershamPharmacia Biotech, Piscataway, N.J. Stock is prepared at 2 nM in membrane dilution buffer. Final assay concentration is 1 nM. Non-specific Binding • A2a: To determine non-specific binding, add 100 nM CGS 15923 (RBI, Natick, Mass.). Working stock is prepared at 400 nM in compound dilution buffer. • A1: To determine non-specific binding, add 100 μM NECA (RBI, Natick, Mass.). Working stock is prepared at 400 μM in compound dilution buffer. Compound Dilution • Prepare 1 mM stock solutions of compounds in 100% DMSO. Dilute in compound dilution buffer. Test at 10 concentrations ranging from […] to 30 μM. Prepare working solutions at 4× final concentration in compound dilution buffer. […]

T1 sequence (P29274 whole entry): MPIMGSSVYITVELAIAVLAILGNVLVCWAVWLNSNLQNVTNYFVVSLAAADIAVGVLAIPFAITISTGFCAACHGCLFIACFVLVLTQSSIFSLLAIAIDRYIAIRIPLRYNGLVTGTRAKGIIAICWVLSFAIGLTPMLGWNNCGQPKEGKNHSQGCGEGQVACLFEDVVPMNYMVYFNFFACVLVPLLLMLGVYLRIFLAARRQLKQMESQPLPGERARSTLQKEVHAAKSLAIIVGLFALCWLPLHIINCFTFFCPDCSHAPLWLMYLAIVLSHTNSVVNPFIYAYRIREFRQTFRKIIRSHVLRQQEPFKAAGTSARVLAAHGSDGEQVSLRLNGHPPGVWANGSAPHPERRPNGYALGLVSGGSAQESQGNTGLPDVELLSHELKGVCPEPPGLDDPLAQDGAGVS

| Ki [nM] | Structure (SMILES) |
| --- | --- |
| 2.3 | CC#Cc1nc2c3cnn(CCN4CCN(c5ccc(OCCOC)cc5F)CC4)c3nc(N)n2n1 [Example 5-4] |
| 2.2 | CC#Cc1nc2c3cnn(CCN4CCN(c5ccc(F)cc5F)CC4)c3nc(N)n2n1 [Example 1-17] |
